Reference: publication PMC5823473, “Host-parasite co-metabolic activation of antitrypanosomal aminomethyl-benzoxaboroles” (PLoS Pathogens, 2018)

How the values were obtained:
MAOa = target: T1, MAOa (Homo sapiens, UniProt P21397); test: HPLC-MS of metabolites; type: biochemical; conditions: oxidised to the aldehyde
T1 construct: commercial recombinant enzyme (Sigma)
T1 sequence (P21397 1-527): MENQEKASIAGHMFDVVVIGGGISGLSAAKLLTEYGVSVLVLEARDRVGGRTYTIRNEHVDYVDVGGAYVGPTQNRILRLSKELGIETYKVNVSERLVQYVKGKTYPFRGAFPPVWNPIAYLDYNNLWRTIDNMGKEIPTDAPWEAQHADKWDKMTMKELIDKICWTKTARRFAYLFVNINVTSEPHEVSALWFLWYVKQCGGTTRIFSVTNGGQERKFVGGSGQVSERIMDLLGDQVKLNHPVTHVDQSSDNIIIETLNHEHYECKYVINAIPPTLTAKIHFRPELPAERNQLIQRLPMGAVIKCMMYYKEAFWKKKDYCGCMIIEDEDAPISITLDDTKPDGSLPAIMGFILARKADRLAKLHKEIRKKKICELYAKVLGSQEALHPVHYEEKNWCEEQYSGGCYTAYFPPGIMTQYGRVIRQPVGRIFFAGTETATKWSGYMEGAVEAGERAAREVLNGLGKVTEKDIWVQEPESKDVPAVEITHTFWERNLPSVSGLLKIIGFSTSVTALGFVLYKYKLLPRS

TbALDH3 = target: T2, TbALDH3 (Trypanosoma brucei, UniProt Q583M9); test: HPLC-MS of metabolites, coupled with MAOa or FBS; type: biochemical; conditions: aldehyde made in situ from AN3057; oxidised to the carboxylate (AN2861)
T2 construct: gene Tb06.5F5.780; A6-K490 seen in crystal
T2 sequence (Q583M9 1-543): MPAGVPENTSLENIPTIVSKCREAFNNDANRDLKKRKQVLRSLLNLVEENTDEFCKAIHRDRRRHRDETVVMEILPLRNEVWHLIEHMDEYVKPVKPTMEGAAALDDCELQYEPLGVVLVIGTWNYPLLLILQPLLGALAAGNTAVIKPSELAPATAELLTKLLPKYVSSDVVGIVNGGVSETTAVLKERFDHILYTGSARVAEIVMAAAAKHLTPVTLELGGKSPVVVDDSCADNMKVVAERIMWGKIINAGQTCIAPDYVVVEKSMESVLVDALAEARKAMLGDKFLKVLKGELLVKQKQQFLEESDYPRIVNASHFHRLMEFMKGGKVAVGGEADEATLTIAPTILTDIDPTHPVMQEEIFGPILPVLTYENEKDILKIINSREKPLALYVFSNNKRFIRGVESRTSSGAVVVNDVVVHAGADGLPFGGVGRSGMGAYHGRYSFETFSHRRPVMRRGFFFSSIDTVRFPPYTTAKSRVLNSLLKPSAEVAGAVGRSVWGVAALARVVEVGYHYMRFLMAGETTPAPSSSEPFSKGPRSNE

For NCc1ccc(Oc2ccc3c(c2)COB3O)cc1 [AN3057, (4-(1-hydroxy-1,3-dihydrobenzo[c][1,2]oxaborol-5-yloxy)phenyl)methanaminium chloride], the HPLC-MS of metabolites (MAOa) was “the methylamine group in the structure is first converted by MAOa into an aldehyde”.

O=Cc1ccc(Oc2ccc3c(c2)COB3O)cc1 [AN3057-aldehyde] was tested, and the “HPLC-MS of metabolites, coupled with MAOa or FBS” value (TbALDH3) was “converted by MAOa into an aldehyde, and then is further metabolized into a carboxylic acid”.
